Laboratory results from patent US6210964A, “Avian extracellular calcium-sensing receptor” (The Brigham and Women's Hospital, Inc., priority 1998, dated 2001).

What was measured:
human CaR [1] = molecular target: T1, human CaR (Homo sapiens, UniProt P41180); assay: Cytosolic calcium (Cai) response of HEK 293 cells stably transfected with the human CaR; type: cell-based; design: expressed in transfected cells; host or cells: HEK 293; conditions: for effect on the EC50 of activation by Cao compared with 40 mM NaCl: addition of 40 mM salt
T1 sequence (P41180 20-1078): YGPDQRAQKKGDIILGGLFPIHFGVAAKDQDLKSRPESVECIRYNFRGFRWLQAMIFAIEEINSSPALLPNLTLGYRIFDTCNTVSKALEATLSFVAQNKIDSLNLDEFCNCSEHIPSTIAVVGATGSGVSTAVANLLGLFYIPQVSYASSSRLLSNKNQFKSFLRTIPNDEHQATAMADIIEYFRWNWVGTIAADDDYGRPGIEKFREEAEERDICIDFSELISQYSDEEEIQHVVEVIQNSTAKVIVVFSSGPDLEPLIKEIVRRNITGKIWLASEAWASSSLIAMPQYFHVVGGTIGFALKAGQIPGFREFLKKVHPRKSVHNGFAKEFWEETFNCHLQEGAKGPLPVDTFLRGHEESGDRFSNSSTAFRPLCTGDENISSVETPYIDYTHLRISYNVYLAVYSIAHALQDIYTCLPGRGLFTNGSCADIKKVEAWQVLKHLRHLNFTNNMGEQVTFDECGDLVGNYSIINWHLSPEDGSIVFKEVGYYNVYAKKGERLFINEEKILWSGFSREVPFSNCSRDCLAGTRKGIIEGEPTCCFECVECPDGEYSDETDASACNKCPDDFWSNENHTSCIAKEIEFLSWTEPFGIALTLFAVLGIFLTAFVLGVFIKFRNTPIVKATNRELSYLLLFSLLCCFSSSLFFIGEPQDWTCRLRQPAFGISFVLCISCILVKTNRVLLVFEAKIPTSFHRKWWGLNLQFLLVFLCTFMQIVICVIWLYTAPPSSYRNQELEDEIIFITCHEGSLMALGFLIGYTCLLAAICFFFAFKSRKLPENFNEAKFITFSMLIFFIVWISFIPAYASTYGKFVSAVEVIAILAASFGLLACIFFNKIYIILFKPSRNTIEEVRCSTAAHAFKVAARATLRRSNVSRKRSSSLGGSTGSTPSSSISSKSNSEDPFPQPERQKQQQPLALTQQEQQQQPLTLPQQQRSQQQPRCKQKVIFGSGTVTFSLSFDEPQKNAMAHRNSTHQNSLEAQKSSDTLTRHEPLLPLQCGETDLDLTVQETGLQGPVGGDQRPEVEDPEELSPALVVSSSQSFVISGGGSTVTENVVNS
Method: Measurement of Cai using cell population system: Coverslips with near-confluent HEK cells were loaded with fura-2/AM and placed diagonally into thermostated cuvettes equipped with a magnetic stirrer. The bath solution was stirred at 37° C., and CaR agonists were added to the desired final concentration. Excitation monochrometers was centered at 340 nm and 380 nm with emission light collected at 90° using a long-pass emission filter. The 340/380 excitation ratio of emitted light was used to calculate Cai. Both in vivo and in vitro calibrations were used to estimate Cai.

chicken CaR = molecular target: T2, chicken CaR (Gallus gallus, UniProt A0A8V0ZLX2); assay: Expression of chicken CaR in Xenopus laevis oocytes, agonist-dependent inward Cl- currents; type: cell-based
T2 construct: ORF 3177 nt, nt 87-3263), T7 cRNA injected into Xenopus laevis oocytes
T2 sequence (A0A8V0ZLX2 20-1059): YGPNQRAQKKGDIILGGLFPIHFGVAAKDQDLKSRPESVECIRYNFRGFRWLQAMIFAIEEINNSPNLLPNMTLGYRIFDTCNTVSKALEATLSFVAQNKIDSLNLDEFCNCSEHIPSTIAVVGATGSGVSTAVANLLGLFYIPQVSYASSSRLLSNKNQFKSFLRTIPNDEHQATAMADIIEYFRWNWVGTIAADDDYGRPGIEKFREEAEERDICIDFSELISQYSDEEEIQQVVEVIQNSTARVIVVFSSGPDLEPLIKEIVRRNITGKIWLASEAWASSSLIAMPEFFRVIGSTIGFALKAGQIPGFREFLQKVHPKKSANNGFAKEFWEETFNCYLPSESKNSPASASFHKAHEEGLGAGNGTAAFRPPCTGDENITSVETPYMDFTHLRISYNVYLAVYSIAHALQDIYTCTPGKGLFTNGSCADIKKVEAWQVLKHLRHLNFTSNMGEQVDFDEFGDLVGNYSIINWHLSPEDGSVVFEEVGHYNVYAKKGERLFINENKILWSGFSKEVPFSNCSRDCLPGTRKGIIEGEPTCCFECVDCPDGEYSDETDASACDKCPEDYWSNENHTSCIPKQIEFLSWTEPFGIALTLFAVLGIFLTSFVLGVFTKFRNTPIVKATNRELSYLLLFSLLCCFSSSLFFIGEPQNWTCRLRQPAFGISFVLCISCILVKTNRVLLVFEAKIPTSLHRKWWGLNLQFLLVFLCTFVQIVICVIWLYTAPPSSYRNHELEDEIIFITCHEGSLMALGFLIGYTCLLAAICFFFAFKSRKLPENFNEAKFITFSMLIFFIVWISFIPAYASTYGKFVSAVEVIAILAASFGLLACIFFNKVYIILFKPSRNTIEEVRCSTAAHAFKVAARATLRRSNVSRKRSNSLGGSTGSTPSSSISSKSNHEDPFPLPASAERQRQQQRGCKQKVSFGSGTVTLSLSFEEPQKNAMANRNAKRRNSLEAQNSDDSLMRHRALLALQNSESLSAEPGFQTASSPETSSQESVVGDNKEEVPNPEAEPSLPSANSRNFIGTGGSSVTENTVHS
Description: Expression of the chicken CaR in Xenopus laevis oocytes. The assay is based on injection of synthetic RNA (cRNA) for the chicken CaR into Xenopus oocytes and measurement of agonist-dependent inward currents due to CaR-mediated stimulation of Ca^2+ -activated Cl^- channels (Brown, et al., Nature 366: 575-580 (1993)). In preparing, handling and injecting the oocytes, the techniques of Hediger et al. were followed (Proc. Nat'l Acad. Sci. USA 84:2634-2637 (1987)). cRNA was transcribed from the C1D one as previously described (Brown et al. Nature 336:575-580 (1993)). In vitro transcription of cRNA was done with T7 RNA polymerase in the presence of a cap analog (m^7 -GpppG, Pharmacia Biotech, Upsala, Sweden). Defolliculated oocytes were injected with 50 nl of a 0.25 μg/μl aqueous solution of CaR cRNA or with the same volume of H2 O as a negative control. The injected oocytes were then incubated in ND96 "standard" solution containing 92 mM Na, 5 mM K, 0.5 mM CaCl2 0.5 mM MgCl and 5 mM Hepes, pH 7.5, for 3-4 days before electrophysiological study. Cl^- currents were elicited by treatment of the oocytes with increasing concentrations of Ca^2+0, Mg^2+0 or Gd^3+0 and were measured using two electrode voltage clamp at a holding potential of […], as described in detail previously (Brown et al. Nature 336:575-580 (1993); Riccardi, et al. Proc. Nat'l Acad. Sci. USA 92:131-135 (1995)).

human CaR [2] = molecular target: T1, human CaR; conditions: addition of NaCl
Method: Measurement of ^3 H-inositol phosphates: Cells transfected with DNA encoding human CaR were labeled with [^3 H]inositol (10 uCi/10^6 cells) overnight in medium 199 (with 10 ul/ml penicillin-streptomycin, 10 mM Hepes, pH 7.5, and 15% bovine serum), washed with solution (10 mM LiCl, 0.5 mM MgSO4, 0.5 mM CaCl2, and 2 mg/ml BSA in Eagle's MEM with Earle's salts), and then incubated with polyvalent cations for 30 minutes. Reactions were terminated with a final concentration of 10% TCA. After sedimentation of precipitated debris and removal of TCA by ether extraction, inositol phosphates in the aqueous phase were separated on Dowex anion exchange columns. The radioactive inositol monophosphate (InsP), bisphosphate (InsP2), trisphosphate (InsP3) and tetraphosphate (InsP4) were eluted stepwise with 0.2 M, 0.4 M, 0.8 M and 1.2 M formate containing 0.1 M formic acid, respectively, and quantitated using a liquid scintillation counter.

[3] = oocytes injected with chicken CaR cRNA, Cl- currents

[Ca+2] [Ca^2+o]
threshold for cell activation (human CaR [1]; no alteration in NaCl): about 1.5 mM | EC50 (human CaR [1]; no alteration in NaCl, read-out: EC50 for activation of the CaR): ~3.5 mM | shift in the EC50 per 10 mM change in ionic strength (human CaR [1]; per 10 mM change in ionic strength): approximately 0.2 mM | effective concentration range (chicken CaR; [3]): millimolar range

[Gd+3] [Gd^3+o]
magnitude of inward current responses relative to Ca2+-evoked responses (chicken CaR; FIG. 5): almost an order of magnitude greater | half-maximal activation (chicken CaR; [3]): micromolar range

[Mg+2] [Mg^2+o]
effective concentration range (chicken CaR; [3]): millimolar range

[Cl-].[Na+] [NaCl, sodium chloride]
effect on Cai response to 2.5 mM Cao (human CaR [1]; NaCl elevated by 20 to 60 mM): attenuated | effect on threshold and EC50 of Cao activation (human CaR [1]; addition of NaCl in 20 mM increments): shift to the right | effect on Ca0-stimulated inositol phosphate accumulation (human CaR [2]): attenuated

C[N+](C)(C)CCO.[Cl-] [choline chloride]
effect on the EC50 of activation by Cao compared with 40 mM NaCl (human CaR [1]): same effect

[Cl-].[K+] [potassium chloride]
effect on the EC50 of activation by Cao compared with 40 mM NaCl (human CaR [1]): same effect
